Data published in patent US20230391809A1, “HYDROPHOBIC COMPOSITIONS INCLUDING A HYDROPHILIC ACTIVE INGREDIENT AND METHODS RELATING THERETO” (BioMimetix JV, LLC, priority 2022, published 2023).
Read-outs that look alike come from different tables or passages of the source. Marks after values point to notes of the source that are not given here.

Method: The vial was placed in a first 3 mL low density polyethylene (LDPE) bag with a 1/6 desiccant and the bag was twist tie closed. The first bag was placed in a second 3 mL LDPE bag, twist tie closed, and placed in a high density polyethylene (HDPE) container.

In the case of CC[n+]1ccccc1-c1c2nc(c(-c3cccc[n+]3CC)c3ccc([n-]3)c(-c3cccc[n+]3CC)c3nc(c(-c4cccc[n+]4CC)c4ccc1[n-]4)C=C3)C=C2.[Cl-].[Cl-].[Cl-].[Cl-].[Cl-].[Mn+3] [BMX-010], the Appearance (25° C./60% RH, 3 Month) is reported as “Brown Solid”, the “Assay by UPLC (Wt % of an anhydrous basis, sum of Atropisomers)” value (25° C./60% RH, 3 Month) is reported as 100.3% and the “PSD D10” value (25° C./60% RH, 3 Month) is reported as “D10: 0.60 μm”. The “PSD D50” value (25° C./60% RH, 3 Month) was “D50: 1.1 μm”, the “PSD D90” value (25° C./60% RH, 3 Month) was “D90: 2.0 μm” and the “Total Impurities by HPLC (Area %)” value (25° C./60% RH, 3 Month) was 0.81%. For the same compound, the “Water Content by Karl Fischer” value (25° C./60% RH, 3 Month) was 7.3%, the Appearance (25° C./60% RH, 6 Month) was “Brown Solid” and the “Assay by UPLC (Wt % of an anhydrous basis, sum of Atropisomers)” value (25° C./60% RH, 6 Month) was 99.9%. The “PSD D10” value (25° C./60% RH, 6 Month) was “D10: 0.62 μm*”, the “PSD D50” value (25° C./60% RH, 6 Month) was “D50: 1.2 μm*” and the “PSD D90” value (25° C./60% RH, 6 Month) was “D90: 2.0 μm*”. The “Total Impurities by HPLC (Area %)” value (25° C./60% RH, 6 Month) was 0.88%, the “Water Content by Karl Fischer” value (25° C./60% RH, 6 Month) was 7.7% and the XRPD (25° C./60% RH, 6 Month) was “Amorphous”. For the same compound, the Appearance (40° C./75% RH, 3 Month) was “Brown Solid”, the “Assay by UPLC (Wt % of an anhydrous basis, sum of Atropisomers)” value (40° C./75% RH, 3 Month) was 100.2% and the “PSD D10” value (40° C./75% RH, 3 Month) was “D10: 0.60 μm”. For the same compound, the “PSD D50” value (40° C./75% RH, 3 Month) was “D50: 1.2 μm”, the “PSD D90” value (40° C./75% RH, 3 Month) was “D90: 2.1 μm” and the “Total Impurities by HPLC (Area %)” value (40° C./75% RH, 3 Month) was 1.3%. For the same compound, the “Water Content by Karl Fischer” value (40° C./75% RH, 3 Month) was 7.5%, the Appearance (40° C./75% RH, 6 Month) was “Brown Solid” and the “Assay by UPLC (Wt % of an anhydrous basis, sum of Atropisomers)” value (40° C./75% RH, 6 Month) was 97.9%**. For the same compound, the “PSD D10” value (40° C./75% RH, 6 Month) was “D10: 0.61 μm*”, the “PSD D50” value (40° C./75% RH, 6 Month) was “D50: 1.2 μm*” and the “PSD D90” value (40° C./75% RH, 6 Month) was “D90: 2.1 μm*”. For the same compound, the “Total Impurities by HPLC (Area %)” value (40° C./75% RH, 6 Month) was 1.6%**, the “Water Content by Karl Fischer” value (40° C./75% RH, 6 Month) was 8.5% and the XRPD (40° C./75% RH, 6 Month) was “Amorphous”. For the same compound, the Appearance (T = 0) was “Brown Solid”, the “Assay by UPLC (Wt % of an anhydrous basis, sum of Atropisomers)” value (T = 0) was 97.5% and the “PSD D10” value (T = 0) was “D10: 0.61 μm”. For the same compound, the “PSD D50” value (T = 0) was “D50: 1.2 μm”, the “PSD D90” value (T = 0) was “D90: 2.0 μm” and the “Total Impurities by HPLC (Area %)” value (T = 0) was 0.67%. For the same compound, the “Water Content by Karl Fischer” value (T = 0) was 6.9%, the XRPD (T = 0) was “Amorphous” and the Appearance (−20° C., 3 Month) was “Brown Solid”. The “Assay by UPLC (Wt % of an anhydrous basis, sum of Atropisomers)” value (−20° C., 3 Month) was 101.4%, the “PSD D10” value (−20° C., 3 Month) was “D10: 0.59 μm” and the “PSD D50” value (−20° C., 3 Month) was “D50: 1.1 μm”. For the same compound, the “PSD D90” value (−20° C., 3 Month) was “D90: 2.0 μm”, the “Total Impurities by HPLC (Area %)” value (−20° C., 3 Month) was 0.63% and the “Water Content by Karl Fischer” value (−20° C., 3 Month) was 7.0%. For the same compound, the Appearance (−20° C., 6 Month) was “Brown Solid”, the “Assay by UPLC (Wt % of an anhydrous basis, sum of Atropisomers)” value (−20° C., 6 Month) was 100.7% and the “PSD D10” value (−20° C., 6 Month) was “D10: 0.59 μm*”. For the same compound, the “PSD D50” value (−20° C., 6 Month) was “D50: 1.1 μm*”, the “PSD D90” value (−20° C., 6 Month) was “D90: 1.9 μm*” and the “Total Impurities by HPLC (Area %)” value (−20° C., 6 Month) was 0.63%. The “Water Content by Karl Fischer” value (−20° C., 6 Month) was 7.4% and the XRPD (−20° C., 6 Month) was “Amorphous”.
